Legend:
[1] = tested on: green peach aphid (Myzus persicae); test: Green peach aphid (Myzus persicae) control, systemic, artificial diet under membrane, 96-well plates; type: in vivo; details: 3 days
From the text: After application, 5-8 adult aphids were placed on the artificial membrane inside the microtiter plate wells. […] Aphid mortality and fecundity was then visually assessed.

[2] = tested on: boll weevil (Anthonomus grandis); test: Boll weevil (Anthonomus grandis) control, insect diet with eggs, 24-well plates; details: 5 days
[3] = tested on: Mediterranean fruitfly (Ceratitis capitata); test: Mediterranean fruitfly (Ceratitis capitata) control, insect diet with eggs, 96-well plates; details: 5 days
[4] = tested on: tobacco budworm (Heliothis virescens); test: Tobacco budworm (Heliothis virescens) control, insect diet with eggs, 96-well plates; details: 5 days
[5] = tested on: vetch aphid (Megoura viciae); test: Vetch aphid (Megoura viciae) control, broad bean leaf disks in 24-well microtiter plates; type: in vivo; details: sprayed on leaf disks, aphid mortality and fecundity after 5 days
From the text: After application, the leaf disks were air-dried and 5-8 adult aphids placed on the leaf disks inside the microtiter plate wells. […] Aphid mortality and fecundity was then visually assessed.

[6] = 0.0016 + 0 ppm (mixing partner alone at 0.0016 ppm)
[7] = 0 + 1 ppm (compound I alone at 1 ppm)
[8] = 0 + 5 ppm (compound I alone at 5 ppm)
[9] = 0 + 0.2 ppm (compound I alone at 0.2 ppm)
[10] = 0.08 + 0 ppm (mixing partner alone at 0.08 ppm)
[11] = 3.2 + 0 ppm (mixing partner alone at 3.2 ppm)

Question: Which results are given for `N#C/N=C1\SCCN1Cc1ccc(Cl)nc1` [Thiacloprid]?
Answer: Average (Control %) [1, 6]: 50%; Average (Control %) [2, 6]: 0%

Question: How did the “Average (Control %)” value [1, 7] turn out when `CCS(CC)=NC(=O)c1cc(Cl)cc(Cl)c1NC(=O)c1cc(C(F)(F)F)nn1-c1ncccc1Cl` [Compound I-16, 2-(3-chloro-2-pyridyl)-N-[2,4-dichloro-6-[(diethyl-λ^4-sulfanylidene)carbamoyl]phenyl]-5-(trifluoromethyl)pyrazole-3-carboxamide] was run?
Answer: 25%

Question: What about the “Average (Control %)” value [3, 8] of the same molecule?
Answer: 0%

Question: And the “Average (Control %)” value [4, 7]?
Answer: 0%

Question: With `Cc1cc(Cl)cc(C(=O)N=S(C(C)C)C(C)C)c1NC(=O)c1cc(C(F)(F)F)nn1-c1ncccc1Cl` [Compound I-21, 2-(3-chloro-2-pyridyl)-N-[2-methyl-4-chloro-6-[(bis-2-propyl-λ^4-sulfanylidene)carbamoyl]phenyl]-5-(trifluoromethyl)pyrazole-3-carboxamide] as the molecule, how does the “Average (Control %)” value [3, 8] read?
Answer: 0%

Question: What about the “Average (Control %)” value [2, 8] of the same molecule?
Answer: 0%

Question: What about the “Average (Control %)” value [4, 9] of the same molecule?
Answer: 0%

Question: What about the “Average (Control %)” value [4, 7] of the same molecule?
Answer: 50%

Question: Which results are given for `CCS(CC)=NC(=O)c1cc(Cl)cc(C)c1NC(=O)c1cc(C(F)(F)F)nn1-c1ncccc1Cl` [Compound I-11, 2-(3-chloro-2-pyridyl)-N-[2-methyl-4-chloro-6-[(diethyl-λ^4-sulfanylidene)carbamoyl]phenyl]-5-(trifluoromethyl)pyrazole-3-carboxamide]?
Answer: Average (Control %) [1, 7]: 0%; Average (Control %) [2, 7]: 0%; Average (Control %) ([5]; Spirotetramat + I-11 at 0 + 1 ppm (I-11 alone, 1 ppm)): 0%; Average (Control %) [4, 9]: 0%

Question: `CN/C(=N\[N+](=O)[O-])NCc1cnc(Cl)s1` [Clothianidin] was tested. Which “Average (Control %)” value ([3]; 1 + 0 ppm (mixing partner alone at 1 ppm)) did it give?
Answer: 0%

Question: What about the “Average (Control %)” value [4, 10] of the same molecule?
Answer: 0%

Question: Which “Average (Control %)” value ([3]; 10 + 0 ppm (mixing partner alone at 10 ppm)) does the source give for `CC[S+]([O-])c1c(C#N)nn(-c2c(Cl)cc(C(F)(F)F)cc2Cl)c1N` (centres unmarked) [Ethiprol] here?
Answer: 0%

Question: What about the “Average (Control %)” value ([2]; 2 + 0 ppm (mixing partner alone at 2 ppm)) of the same molecule?
Answer: 50%

Question: What about the “Average (Control %)” value [4, 10] of the same molecule?
Answer: 0%

Question: With Spinosad as the molecule, how does the “Average (Control %)” value [3, 10] read?
Answer: 0%

Question: And the “Average (Control %)” value [2, 10]?
Answer: 0%

Question: What about the “Average (Control %)” value [4, 10] of the same molecule?
Answer: 0%

Question: And the “Average (Control %)” value ([4]; 0.4 + 0 ppm (mixing partner alone at 0.4 ppm))?
Answer: 0%

Question: Which “Average (Control %)” value [1, 11] does the source give for `CCOC(=O)OC1=C(c2cc(C)ccc2C)C(=O)N[C@]12CC[C@@H](OC)CC2` [Spirotetramat, spirotetramat, reference compound] here?
Answer: 0%

Question: And the “Average (Control %)” value ([1]; 80 + 0 ppm (mixing partner alone at 80 ppm))?
Answer: 50%

Question: And the “Average (Control %)” value ([5]; Spirotetramat + I-11 at 80 + 0 ppm (Spirotetramat alone, 80 ppm))?
Answer: 25%

Question: What about the “Average (Control %)” value [4, 11] of the same molecule?
Answer: 0%
